The numbers were not newly measured in patent publication US20070020642A1, “Structural interaction fingerprint” (priority 2003, published 2007), which cites them from elsewhere.

The target of the data set is p38 (Homo sapiens, UniProt Q16539). To be noted: result in words, known from the literature.
Sequence of p38 (Q16539 whole entry): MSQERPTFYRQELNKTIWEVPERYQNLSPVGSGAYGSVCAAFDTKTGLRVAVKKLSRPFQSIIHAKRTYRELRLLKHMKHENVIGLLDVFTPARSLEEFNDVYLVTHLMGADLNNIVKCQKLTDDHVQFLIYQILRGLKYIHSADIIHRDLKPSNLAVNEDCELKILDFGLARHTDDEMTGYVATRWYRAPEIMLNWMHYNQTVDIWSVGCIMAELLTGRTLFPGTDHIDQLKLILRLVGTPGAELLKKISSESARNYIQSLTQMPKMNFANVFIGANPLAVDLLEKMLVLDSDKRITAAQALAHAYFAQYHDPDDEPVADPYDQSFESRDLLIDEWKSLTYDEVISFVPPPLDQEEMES

Turning to `O=C(C(=C1SCS1)c1ccncc1)c1ccc(OC(F)(F)F)cc1` [Cmp-59076, 2-[1,3]Dithietan-2-pyridin-4-yl-1-(4-trifluoromethoxy-phenyl)-ethanone], the p38 inhibition activity entry is reported as “no p38 inhibition activity”.

With `Fc1ccc(-c2nc3n(c2-c2ccncc2)CCS3)cc1` [SKF-86002], the p38 inhibition activity result is on record as “potent p38 inhibitors”.
